Laboratory results: PubChem BioAssay (NCI)
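Here, GI50 denotes the concentration required for 50% inhibition of growth. TGI marks complete inhibition of growth.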

How the values were obtained:
Assay in all cases: growth of human tumour cells (NCI), 384-well format
[1] = tested on: NCI-H522 lung
[2] = tested on: SW-620 colon
[3] = tested on: NCI-H460 NSCLC
[4] = tested on: CCRF-CEM leukemia
[5] = tested on: NCI-H23 lung
[6] = tested on: HL-60(TB) leukemia
[7] = tested on: TK-10 renal
[8] = tested on: MOLT-4 leukemia
[9] = tested on: SR leukemia
[10] = tested on: 786-0 renal
[11] = tested on: SNB-75 CNS
[12] = tested on: NCI-H226 lung
[13] = tested on: EKVX NSCLC
[14] = tested on: A549 NSCLC
[15] = tested on: SN12C renal
[16] = tested on: OVCAR-5 ovarian
[17] = tested on: SF-539 CNS
[18] = tested on: SF-295 CNS
[19] = tested on: SF-268 CNS
[20] = tested on: BT-549 breast
[21] = tested on: SK-MEL-2 melanoma
[22] = tested on: OVCAR-4 ovarian
[23] = tested on: MDA-MB-435 melanoma
[24] = tested on: MDA-MB-468 breast
[25] = tested on: RXF 393 renal
[26] = tested on: MALME-3M melanoma
[27] = tested on: CAKI-1 renal
[28] = tested on: SK-MEL-28 melanoma
[29] = tested on: HCT-15 colon
[30] = tested on: U251 glioblastoma
[31] = tested on: UACC-62 melanoma
[32] = tested on: ACHN renal
[33] = tested on: SK-OV-3 ovarian
[34] = tested on: MDA-MB-231 breast
[35] = tested on: HOP-92 NSCLC
[36] = tested on: UACC-257 melanoma
[37] = tested on: NCI-H322M lung
[38] = tested on: HOP-62 NSCLC
[39] = tested on: RPMI-8226 leukemia
[40] = tested on: M14 melanoma
[41] = tested on: NCI/ADR-RES ovarian
[42] = tested on: SNB-19 CNS
[43] = tested on: SK-MEL-5 melanoma
[44] = tested on: OVCAR-8 ovarian
[45] = tested on: PC-3 prostate
[46] = tested on: DU-145 prostate
[47] = tested on: KM12 colon
[48] = tested on: HS 578T breast
[49] = tested on: HCC-2998 colon
[50] = tested on: OVCAR-3 ovarian
[51] = tested on: COLO 205 colon
[52] = tested on: T-47D breast
[53] = tested on: IGROV1 ovarian
[54] = tested on: MCF7 breast
[55] = tested on: HT29 colon

Nc1ncn([C@@H]2S[C@H](CO)[C@@H](O)[C@@H]2F)c(=O)n1
GI50 [1]: 628 nM
TGI [1]: > 100000 nM
GI50 [2]: 887 nM
TGI [2]: > 100000 nM
GI50 [3]: 238 nM
TGI [3]: 724 nM
GI50 [4]: 26.6 nM
TGI [4]: 96.1 nM
GI50 [5]: 269 nM
TGI [5]: 805 nM
GI50 [6]: 241 nM
TGI [6]: 495 nM
GI50 [7]: 988 nM
TGI [7]: > 100000 nM
GI50 [8]: 28.7 nM
TGI [8]: 110 nM
GI50 [9]: 414 nM
TGI [9]: 1400 nM
GI50 [10]: 254 nM
TGI [10]: 1540 nM
GI50 [11]: 15600 nM
TGI [11]: > 100000 nM
GI50 [12]: 1010 nM
TGI [12]: 3800 nM
GI50 [13]: 6470 nM
TGI [13]: > 100000 nM
GI50 [14]: 409 nM
TGI [14]: > 100000 nM
GI50 [15]: 604 nM
TGI [15]: 2910 nM
GI50 [16]: 691 nM
TGI [16]: 7730 nM
GI50 [17]: 3750 nM
TGI [17]: 18600 nM
GI50 [18]: 2440 nM
TGI [18]: 17800 nM
GI50 [19]: 1050 nM
TGI [19]: 4990 nM
GI50 [20]: 1340 nM
TGI [20]: 8750 nM
GI50 [21]: 392 nM
TGI [21]: 692 nM
GI50 [22]: > 100000 nM
TGI [22]: > 100000 nM
GI50 [23]: 1730 nM
TGI [23]: > 100000 nM
GI50 [24]: 2370 nM
TGI [24]: 8070 nM
GI50 [25]: 2770 nM
TGI [25]: 44800 nM
GI50 [26]: 366 nM
TGI [26]: 2660 nM
GI50 [27]: 625 nM
TGI [27]: > 100000 nM
GI50 [28]: 507 nM
TGI [28]: 4920 nM
GI50 [29]: 1850 nM
TGI [29]: > 100000 nM
GI50 [30]: 2410 nM
TGI [30]: 23600 nM
GI50 [31]: 3640 nM
TGI [31]: 19700 nM
GI50 [32]: 224 nM
TGI [32]: 490 nM
GI50 [33]: 299 nM
TGI [33]: 2200 nM
GI50 [34]: 1140 nM
TGI [34]: 81100 nM
GI50 [35]: 314 nM
TGI [35]: > 100000 nM
GI50 [36]: 58700 nM
TGI [36]: > 100000 nM
GI50 [37]: 2910 nM
TGI [37]: > 100000 nM
GI50 [38]: 423 nM
TGI [38]: 2590 nM
GI50 [39]: 2160 nM
TGI [39]: 4420 nM
GI50 [40]: 290 nM
TGI [40]: 833 nM
GI50 [41]: 291 nM
TGI [41]: 1380 nM
GI50 [42]: 461 nM
TGI [42]: 7050 nM
GI50 [43]: 435 nM
TGI [43]: 2760 nM
GI50 [44]: 255 nM
TGI [44]: 1830 nM
GI50 [45]: 1430 nM
TGI [45]: > 100000 nM
GI50 [46]: 389 nM
TGI [46]: 3950 nM
GI50 [47]: 1410 nM
TGI [47]: > 100000 nM
GI50 [48]: 984 nM
TGI [48]: > 100000 nM
GI50 [49]: 267 nM
TGI [49]: 14100 nM
GI50 [50]: 853 nM
TGI [50]: > 100000 nM
GI50 [51]: 268 nM
TGI [51]: 788 nM
GI50 [52]: 10400 nM
TGI [52]: > 100000 nM
GI50 [53]: 2030 nM
TGI [53]: > 100000 nM
GI50 [54]: 663 nM
TGI [54]: > 100000 nM
GI50 [55]: 2380 nM
TGI [55]: > 100000 nM
